Reference: patent US12653191B2, “Active compound combinations” (Bayer Aktiengesellschaft, priority 2020, dated 2026)
Values joined by “and” are separate entries in the source; they are usually repeats but may differ in a detail not shown here. Identical values can stand only once.

Legend:
[1] = test system: Alternaria alternata; test: in vitro-Test with fungal microorganisms, Method B (tables A13-A22); type: cell-based; settings: single compound
Procedure, shortened: (§1)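 Efficacy scale: 0% means growth equal to the untreated control, 100% means none detected. Compounds are dried from methanol with emulsifier before adding inoculated growth medium; incubation at 20° C., 85% relative humidity for 3 to 7 days precedes photometric inhibition readout.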

[2] = test system: Botrytis cinerea; test: in vitro-Test with fungal microorganisms, Method B (tables B15-B18); type: cell-based; settings: alone
Procedure, shortened: as §1

[3] = test system: Diaporthe citri; test: in vitro-Test with fungal microorganisms, Method B (tables F12-F15); type: cell-based
Procedure, shortened: as §1

[4] = test system: Ustilago segetum var. avenae; test: in vitro-Test with fungal microorganisms, Method B (tables I6-I11); type: cell-based
Procedure, shortened: as §1

[5] = test system: Colletotrichum coccodes; test: in vitro-Test with fungal microorganisms, Method B (tables J1-J11); type: cell-based
Procedure, shortened: as §1

[6] = test system: Cercospora beticola; test: in vitro-Test with fungal microorganisms, Method B (tables C11-C20); type: cell-based
Procedure, shortened: as §1

[7] = test system: Alternaria alternate; test: in vitro-Test with fungal microorganisms, Method A (tables A1-A12); type: cell-based, Alternaria alternata; settings: applied alone
Procedure, shortened: (§2)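 Methanol/emulsifier compound solution evaporated in well; liquid potato dextrose medium + spore or mycelium suspension added; 20° C, 85% RH, 3-5 d; photometric read 620 nm; % efficacy vs untreated.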

[8] = test system: Cercospora beticola; test: in vitro-Test with fungal microorganisms, Method A (tables C1-C10); type: cell-based; settings: for inhibition of growth at 0.008 ppm / inhibition of growth at 0.04 ppm / inhibition of growth at 0.2 ppm / inhibition of growth at 1 ppm: Cercospora beticola, read-out: Efficacy %
Procedure, shortened: as §2

[9] = test system: Botrytis cinerea; test: in vitro-Test with fungal microorganisms, Method A (tables B1-B14); type: cell-based
Procedure, shortened: as §2

[10] = test system: Cordana musae; test: in vitro-Test with fungal microorganisms, Method A (tables E1-E8); type: cell-based; settings: single substance
Procedure, shortened: as §2

[11] = test system: Diaporthe citri; test: in vitro-Test with fungal microorganisms, Method A (tables F1-F11); type: cell-based; settings: applied alone
Procedure, shortened: as §2

[12] = test system: Ustilago segetum var. avenae; test: in vitro-Test with fungal microorganisms, Method A (tables I1-I5); type: cell-based; settings: alone
Procedure, shortened: as §2

[13] = test system: Fusarium culmorum; test: in vitro-Test with fungal microorganisms, Method B (tables G5-G15); type: cell-based
Procedure, shortened: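 Cpd in MeOH + alkylaryl-polyglycol-ether, solvent evaporated; liquid medium + fungal spores/mycelium added; OD600 read; 3–7 d, 20° C., 85% RH; growth inhibition by photometry, % efficacy vs untreated ctrl.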

[14] = test system: Cordana musae; test: in vitro-Test with fungal microorganisms, Method B (tables E9-E16); type: cell-based; settings: for Efficacy %: single substance
Procedure, shortened: as §1

[15] = test system: Parastagonospora nodorum; test: in vitro-Test with fungal microorganisms, Method A (tables H1-H4); type: cell-based
Experimental: Example: In Vitro-Test with Fungal Microorganisms
Wells of 96-well microtiter plates are filled with 10 μl of a preparation of test compound or compound combination in methanol+emulsifier alkylaryl-polyglycol-ether. Thereafter, the solvent is evaporated in a hood. At the next step, 100 μl of liquid potato dextrose medium is given into each well, that has been amended with an appropriate concentration of spores or mycelium suspension of the test fungus.
With the aid of a photometer, the extinction in all wells is measured at the wavelength of 620 nm.
The microtiter plates are incubated at 20° C. and 85% relative humidity. The inhibition of growth is determined again photometrically 3-5 days after the application. Efficacy is calculated in relation to the untreated control, 0% efficacy means fungal growth as high as in untreated control while 100% efficacy means no fungal growth is measured.
The data in tables A1 to A12, B1 to B14, C1 to C10, D1 to D8, E1 to E8, F1 to F11, G1 to G4, H1 to H4 and I1 to I5 were collected according to Method A. The data in tables A13 to A22, B15 to B18, C11 to C20, E9 to E16, F12 to F15, G5 to G15, H5 to H8, I6 to I11 and J1 to J11 were collected according to Method B.

[16] = test system: Colletotrichum lindemuthianum; test: in vitro-Test with fungal microorganisms, Method A (tables D1-D8); type: cell-based
Procedure, shortened: as §2

[17] = test system: Parastagonospora nodorum; test: in vitro-Test with fungal microorganisms, Method B (tables H5-H8); type: cell-based; settings: Parastagonospora nodorum, read-out: Efficacy
Procedure, shortened: as §1

[18] = 0.008 ppm, read-out: Efficacy %

With `COc1ccnc(C(=O)N[C@H]2COC(=O)[C@H](Cc3ccccc3)[C@@H](OC(=O)C(C)C)[C@H](C)OC2=O)c1OCOC(=O)C(C)C` [(3.025) fenpicoxamid, fenpicoxamid] the Efficacy ([1]; 0.008 ppm) was 6%, the Efficacy ([1]; 0.04 ppm) was 14% and the Efficacy ([1]; 1 ppm) was 61%. The Efficacy % ([2]; 0.008 ppm) was 0%, the Efficacy % ([2]; 0.2 ppm) was 14% and the Efficacy % ([2]; 1 ppm) was 52%. For the same compound, the Efficacy ([3]; Table F12, 0.008 ppm alone) was 0%, the Efficacy ([3]; Table F12, 0.2 ppm alone) was 83% and the Efficacy ([3]; Table F12, 1 ppm alone) was 94%. For the same compound, the Efficacy ([3]; Table F13, 0.2 ppm alone) was 79%, the Efficacy % ([4]; 0.008 ppm) was 14% and the Efficacy % ([4]; 0.04 ppm) was 6%. For the same compound, the Efficacy % ([4]; 0.2 ppm) was 1%, the Efficacy % ([5]; single active compound at 0.2 ppm) was 23% and 33% and the Efficacy % ([5]; single active compound at 1 ppm) was 16%. For the same compound, the Efficacy % ([6]; single compound, 0.008 ppm) was 0%, the Efficacy % ([6]; single compound, 0.2 ppm) was 17% and 31% and the Efficacy % ([6]; single compound, 1 ppm) was 97% and 100%. For the same compound, the Efficacy % ([7]; 0.04 ppm) was 5% and 9%, the Efficacy % ([7]; 0.2 ppm) was 2% and 7% and the Efficacy % ([7]; 1.0 ppm) was 41% and 30%. The Efficacy % ([7]; 5.0 ppm) was 76% and 59%, the Efficacy % ([8]; 0.04 ppm) was 0% and the Efficacy % ([8]; 0.2 ppm) was 2%. The Efficacy % ([8]; 0.2 ppm alone) was 41% and 35%, the Efficacy % ([8]; 1.0 ppm) was 20% and the Efficacy % ([8]; 1.0 ppm alone) was 62% and 53%. The Efficacy % ([8]; 5.0 ppm) was 98%, the Efficacy % ([8]; 5.0 ppm alone) was 92% and 88% and the Efficacy ([9]; 0.04 ppm) was 6%. For the same compound, the Efficacy ([9]; 0.2 ppm) was 6%, the Efficacy ([9]; 1.0 ppm) was 21% and the Efficacy % ([9]; alone, 0.04 ppm) was 15%. It also gave an Efficacy % ([9]; alone, 0.2 ppm) of 9%, an Efficacy % ([9]; alone, 1.0 ppm) of 15% and an Efficacy % ([9]; alone, 5.0 ppm) of 45%. It also gave an Efficacy % ([10]; 1.0 ppm) of 40%, an Efficacy % ([10]; 5.0 ppm) of 80% and an Efficacy ([11]; 0.04 ppm) of 3%. The Efficacy ([11]; 1.0 ppm) was 79% and 66%, the Efficacy ([11]; 5.0 ppm) was 92% and the Efficacy % ([12]; 0.04 ppm) was 0%. It also gave an Efficacy % ([12]; 0.2 ppm) of 0%, an Efficacy % ([12]; 1.0 ppm) of 0% and an Efficacy % ([12]; 5.0 ppm) of 0%. For the same compound, the Efficacy ([13]; 0.008 ppm alone) was 10%, the Efficacy ([13]; single active compound, 0.008 ppm) was 7% and 5% and the Efficacy ([13]; single active compound, 0.04 ppm) was 1% and 9%. The Efficacy ([13]; single active compound, 0.2 ppm) was 18% and 25%, the Efficacy ([13]; single active compound, 1 ppm) was 17% and the Efficacy ([14]; single active, 0.2 ppm) was 44%. It also gave an Efficacy % ([14]; 0.008 ppm) of 0%, an Efficacy % ([14]; 0.2 ppm) of 52% and an Efficacy ([15]; 0.04 ppm) of 19%. The Efficacy ([15]; 0.2 ppm) was 61%, the Efficacy ([15]; 1.0 ppm) was 64% and the Efficacy ([15]; 5.0 ppm) was 72%. For the same compound, the Efficacy % ([16]; single active at 0.04 ppm) was 0%, the Efficacy % ([16]; single active at 0.2 ppm) was 5% and the Efficacy % ([16]; single active at 1.0 ppm) was 69% and 66%. For the same compound, the Efficacy % ([16]; single active at 5.0 ppm) was 79% and 86%.

`CC1COC(Cn2cncn2)(c2ccc(Oc3ccc(Cl)cc3)cc2Cl)O1` (stereo not shown) [(1.002) difenoconazole, difenoconazole] gave an inhibition of growth at 0.04 ppm ([1]; Alternaria alternata, 0.04 ppm, read-out: Efficacy) of 21%, an inhibition of growth at 0.2 ppm ([1]; Alternaria alternata, 0.2 ppm, read-out: Efficacy) of 53% and an inhibition of growth at 1 ppm ([1]; Alternaria alternata, 1 ppm, read-out: Efficacy) of 94%. For the same compound, the inhibition of growth at 1 ppm ([2]; Botrytis cinerea, 1 ppm, read-out: Efficacy %) was 13%, the inhibition of growth at 0.008 ppm [4, 18] was 2% and the inhibition of growth at 0.04 ppm ([4]; 0.04 ppm, read-out: Efficacy %) was 40%. For the same compound, the inhibition of growth at 0.2 ppm ([4]; 0.2 ppm, read-out: Efficacy %) was 100%, the inhibition of growth at 0.2 ppm ([5]; Colletotrichum coccodes, 0.2 ppm, read-out: Efficacy %) was 0.31% and the inhibition of growth at 1 ppm ([5]; Colletotrichum coccodes, single active compound at 1 ppm, read-out: Efficacy %) was 24%. The inhibition of growth at 0.008 ppm ([6]; Cercospora beticola, 0.008 ppm, read-out: Efficacy %) was 5%, the inhibition of growth at 0.04 ppm ([6]; Cercospora beticola, read-out: Efficacy %) was 60% and the inhibition of growth at 0.2 ppm ([6]; Cercospora beticola, 0.2 ppm, read-out: Efficacy %) was 98%. It also gave an inhibition of growth at 1 ppm ([6]; Cercospora beticola, 1 ppm, read-out: Efficacy %) of 99%, an inhibition of growth at 0.008 ppm ([6]; Cercospora beticola, single compound, 0.008 ppm, read-out: Efficacy %) of 16% and an inhibition of growth at 0.04 ppm ([6]; Cercospora beticola, single compound, read-out: Efficacy %) of 51%. It also gave an inhibition of growth at 0.2 ppm ([6]; Cercospora beticola, single compound, 0.2 ppm, read-out: Efficacy %) of 100%, an inhibition of growth at 0.04 ppm ([7]; Alternaria, 0.04 ppm, read-out: Efficacy %) of 10% and an inhibition of growth at 0.2 ppm ([7]; Alternaria, 0.2 ppm, read-out: Efficacy %) of 28%. For the same compound, the inhibition of growth at 1 ppm ([7]; Alternaria, 1.0 ppm, read-out: Efficacy %) was 96%, the inhibition of growth at 0.008 ppm ([8]; 0.008 ppm alone) was 5% and the inhibition of growth at 0.008 ppm ([8]; 0.008 ppm) was 15%. For the same compound, the inhibition of growth at 0.04 ppm ([8]; 0.04 ppm alone) was 20%, the inhibition of growth at 0.04 ppm ([8]; 0.04 ppm) was 40% and the inhibition of growth at 0.2 ppm ([8]; 0.2 ppm alone) was 79%. It also gave an inhibition of growth at 0.2 ppm ([8]; 0.2 ppm) of 89%, an inhibition of growth at 1 ppm ([8]; 1.0 ppm alone) of 99% and an inhibition of growth at 1 ppm ([8]; 1.0 ppm) of 99%. It also gave an inhibition of growth at 0.008 ppm ([9]; Botrytis cinerea, alone, 0.008 ppm, read-out: Efficacy %) of 8%, an inhibition of growth at 0.04 ppm ([9]; Botrytis cinerea, alone, 0.04 ppm, read-out: Efficacy %) of 0% and an inhibition of growth at 0.2 ppm ([9]; Botrytis cinerea, alone, 0.2 ppm, read-out: Efficacy %) of 0%. The inhibition of growth at 1 ppm ([9]; Botrytis cinerea, alone, 1.0 ppm, read-out: Efficacy %) was 0%, the inhibition of growth at 0.2 ppm ([10]; Neocordana musae, 0.2 ppm, read-out: Efficacy %) was 0% and the inhibition of growth at 1 ppm ([10]; Neocordana musae, 1.0 ppm, read-out: Efficacy %) was 14%. It also gave an inhibition of growth at 0.04 ppm ([11]; Diaporthe citri, 0.04 ppm, read-out: Efficacy) of 0.04%, an inhibition of growth at 0.008 ppm [12, 18] of 8% and an inhibition of growth at 0.04 ppm ([12]; 0.04 ppm, read-out: Efficacy %) of 14%. The inhibition of growth at 1 ppm ([12]; 1.0 ppm, read-out: Efficacy %) was 100%, the inhibition of growth at 0.04 ppm ([13]; Fusarium culmorum, 0.04 ppm, alone, read-out: Efficacy) was 26% and the inhibition of growth at 0.04 ppm ([14]; Neocordana musae, single active, 0.04 ppm, read-out: Efficacy) was 0%. For the same compound, the inhibition of growth at 0.2 ppm ([14]; Neocordana musae, single active, 0.2 ppm, read-out: Efficacy) was 16%, the inhibition of growth at 1 ppm ([14]; Neocordana musae, single active, 1 ppm, read-out: Efficacy) was 20% and the Efficacy % ([14]; 0.04 ppm) was 0%. It also gave an Efficacy ([15]; 0.04 ppm) of 22%, an Efficacy ([15]; 0.2 ppm) of 88% and an inhibition of growth at 0.008 ppm ([17]; 0.008 ppm) of 32%. The inhibition of growth at 0.04 ppm ([17]; 0.04 ppm) was 100%, the inhibition of growth at 0.2 ppm ([17]; 0.2 ppm) was 100% and the inhibition of growth at 0.008 ppm ([16]; Colletotrichum lindemuthianum, mixing partner alone, 0.008 ppm, read-out: Efficacy %) was 0%. The inhibition of growth at 0.04 ppm ([16]; Colletotrichum lindemuthianum, mixing partner alone, 0.04 ppm, read-out: Efficacy %) was 2%, the inhibition of growth at 0.2 ppm ([16]; Colletotrichum lindemuthianum, mixing partner alone, 0.2 ppm, read-out: Efficacy %) was 0% and the inhibition of growth at 1 ppm ([16]; Colletotrichum lindemuthianum, mixing partner alone, 1.0 ppm, read-out: Efficacy %) was 16%.
